Experimental data: patent US7811778B2, “Methods of screening for gastrointestinal cancer” (Vanderbilt University, priority 2006, dated 2010)

Tested on: fundic mucosa
Experiment: Immunohistochemistry / immunofluorescence of stomachs of DMP-777-treated mice
Format: in vivo, gastrin-deficient mice
Description: Excised stomachs from Gastrin-deficient mice treated with DMP-777 or untreated controls embedded in paraffin were used for immunohistochemistry analysis Stomachs from C57BL/6 wild-type mice and sections from H. felis-infected C57BL/6 mice (infected for 6 months) were also examined with staining as a comparison. For immunohistochemistry, except for Mist1 staining, deparaffinized sections were pretreated with antigen retrieval using Target Retrieval solution (DakoCytomation, Glostrup, Denmark) at 120° C. for 15 minutes, followed by immediate cooling using iced water. For immunohistochemistry of Mist1, Trilogy antigen retrieval solution (Cell Marque, Austin. Tex.) was used during the antigen retrieval procedure. Sections were treated with 2% blocking serum and then incubated with the primary antibody overnight at 4° C. Immunostaining was performed with the following primary antibodies; murine monoclonal immunoglobulin M (IgM) anti-trefoil factor family 2 (TFF2, a gift from Sir Nicholas Wright, Cancer Research UK; 1:1000); rabbit anti-Mist1 (1:2000); murine monoclonal anti-H/K-ATPase (a gift from Dr. Adam J. Smolka, Medical University of South Carolina; 1:100,000); rabbit anti-HE4 (1:2000); rabbit anti-intrinsic factor (a gift from Dr. David Alpers, Washington University, St. Louis; 1:2000);, goat anti-Intrinsic factor (1:2000): rabbit anti-MCM3 (1:2000); rat monoclonal anti-Ki67 (TEC-3, DakoCytomation; 1:200).
For immunofluorescence analysis, Cy3-goat anti-mouse IgM antibody, Cy5-goat anti-mouse IgG antibody (Jackson ImmunoResearch, West Grove, Pa.) and Alexa488 goat anti-rabbit IgG (Invitrogen, Carlsbad, Calif.) were used. PROLONG® Gold Antifade Reagent with DAPI (Invitrogen) was used for nuclear counterstain and mounting medium.
For immunohistochemistry with detection with diaminobenzidine, the sections were incubated with biotinylated secondary antibody followed by horseradish peroxidase-conjugated streptavidin. Chromogen was developed with diaminobenzidine (Biogenex, San Ramon, Calif.). For immunohistochemistry with alkaline-phosphatase detection, the sections were incubated with biotinylated secondary antibody followed by alkaline-phosphatase-conjugated avidin-biotin complex. Chromogen was developed with VECTOR® Red Substrate (Vector Laboratories, Burlingame, Calif.). All sections were counterstained with Gill's hematoxylin.
Sections were viewed and photographed on Zeiss AXIOPHOT® microscope equipped with an AXIOVISION® digital imaging system (Zeiss) or FLUOVIEW® FV1000 confocal microscope system (Olympus).

With CCC[C@@H](NC(=O)N1C(=O)C(CC)(CC)[C@@H]1Oc1ccc(C(=O)N2CCN(C)CC2)cc1)c1ccc2c(c1)OCO2 [DMP-777] the “quantification of Ki-67 staining (FIG. 6F)” value (1 to 14 days of treatment, *p<0.05 at 7 days) was “smaller increase, which was only significant at 7 days of treatment”, the “HE4 expression in SPEM cells at the bases of fundic glands (immunostaining)” value (DMP-777 treated gastrin-deficient mice) was “prominent up-regulation” and the “TACC3 expression in cells at the bases of gastric glands” value (after only one day of DMP-777 treatment) was “TACC3 expression was evident”. For the same molecule, the “HE4 immunoreactivity in SPEM” value (after only one day of treatment) was “markedly increased”, the “quantification of MCM3 staining (FIG. 6F)” value (days 3-14 of treatment, **p<0.01, ***p<0.001) was “significant increase” and the “TFF2 and intrinsic factor staining in cells at the bases of fundic glands” value (gastrin deficient mice treated for 3 days with DMP-777) was “SPEM cells expressing two separate populations of TFF2 and intrinsic factor staining granules were present”. For the same molecule, the “Ki67 positive cell numbers” value (gastrin-deficient mice after DMP-777 treatment) was “only a small increase”, the “number of Mist1 immunoreactive cells at the bases of glands” value (gastrin-deficient mice treated with DMP-777 for three days) was “decreased” and the “number of MCM3 positive cells” value (gastrin-deficient mice, after 1 day of DMP-777, remained elevated through 14 days) was “increased”. The “TACC3 expression in SPEM cells at the bases of fundic glands” value (treatment with DMP-777 for 3 days) was “strongly up-regulated”.
